Assay results as given in PMC7058083, “Structural basis of ligand binding modes at the human formyl peptide receptor 2” (Nature Communications, 2020).
Where a chain is given by its changes, count along the chain named. Residues, ends and D or L forms follow the SMILES beside them. *: point of attachment. For = O=C*

How the values were obtained:
[1] = biological target: T1, wild-type (WT) and mutant FPR2 (Homo sapiens, UniProt P25090, N285A); test: Competition binding of fMLFK with WK(FITC)YMVm, flow cytometry on HEK293F cells; conditions: FPR2 N285A; mean ± s.e.m., n=3; SEM
T1 construct: expressed in transfected cells; host or cells: HEK293F
T1 sequence (P25090 1-351 N285A): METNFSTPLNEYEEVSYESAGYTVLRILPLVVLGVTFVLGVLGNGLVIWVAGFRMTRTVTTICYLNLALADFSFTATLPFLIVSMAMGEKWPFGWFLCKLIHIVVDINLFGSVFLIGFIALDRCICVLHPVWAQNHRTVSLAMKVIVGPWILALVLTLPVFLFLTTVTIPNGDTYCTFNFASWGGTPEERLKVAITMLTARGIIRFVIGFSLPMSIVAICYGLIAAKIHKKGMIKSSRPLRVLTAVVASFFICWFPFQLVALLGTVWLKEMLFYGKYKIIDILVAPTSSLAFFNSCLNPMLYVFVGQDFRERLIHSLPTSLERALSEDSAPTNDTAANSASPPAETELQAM
Procedure: (§1) Flag-tagged wild-type and mutant FPR2s were cloned into the pTT5 vector and expressed in HEK293F cells. The cells were harvested, and washed with Hanks’ Balanced Salt Solution (HBSS) buffer supplemented with 0.5% bovine serum albumin and 20 mM HEPES, pH 7.4. The cells were then resuspended in the same buffer to the final concentration of 1 × 10^6 cells per ml. The cell-surface expression was measured as mentioned above. […] Mean fluorescent intensity of each well was then read by a FCM (flow cytometry) reader (Millipore). […] For competitive binding of fMLFK, cells were plated in 96-well plates (100,000 cells per well), and incubated with WK(FITC)YMVm at 4 °C for 1 h. The following concentrations of WK(FITC)YMVm were used: 10 nM (wild type, L81^2.60F, E89G, and V105^3.32A), 30 nM (D281^7.32G), 40 nM (H102^3.29F, V160^4.60A, L268^ECL3A, N285^7.36A, and F292^7.43A), and 100 nM (L164^4.64A and T177A). Then increasing concentrations of fMLFK (100 nM–1 mM) were added, and incubated for another 1 h on ice. Mean fluorescent intensity values were measured by flow cytometry. Data were analyzed using Prism 7.0.

[2] = biological target: T2, wild-type (WT) and mutant FPR2 (Homo sapiens, UniProt P25090, H102F); test: as above; conditions: FPR2 H102F; mean ± s.e.m., n=3; SEM
T2 construct: expressed in transfected cells; host or cells: HEK293F
T2 sequence (P25090 1-351 H102F): T1 sequence (P25090 1-351 N285A) with H102F, A285N
Procedure: as §1

[3] = biological target: T3, wild-type (WT) and mutant FPR2 (Homo sapiens, UniProt P25090, R205A); test: Saturation binding of WK(FITC)YMVm, flow cytometry on HEK293F cells; conditions: mutant R205A
T3 construct: expressed in transfected cells; host or cells: HEK293F
T3 sequence (P25090 whole entry R205A): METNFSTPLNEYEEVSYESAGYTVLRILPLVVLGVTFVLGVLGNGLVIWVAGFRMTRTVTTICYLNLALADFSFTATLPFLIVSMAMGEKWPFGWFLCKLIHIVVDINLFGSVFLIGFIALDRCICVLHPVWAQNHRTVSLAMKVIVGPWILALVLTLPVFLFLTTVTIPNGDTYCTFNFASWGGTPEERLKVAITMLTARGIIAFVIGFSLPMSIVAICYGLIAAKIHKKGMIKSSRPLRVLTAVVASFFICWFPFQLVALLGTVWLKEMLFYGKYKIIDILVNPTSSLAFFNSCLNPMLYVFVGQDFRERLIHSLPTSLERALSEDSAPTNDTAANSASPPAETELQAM
Procedure: as §1

[4] = biological target: T4, wild-type (WT) and mutant FPR2 (Homo sapiens, UniProt P25090, S211L); test: as above
T4 construct: expressed in transfected cells; host or cells: HEK293F
T4 sequence (P25090 other isoform, or with tags, fused parts or gaps S211L): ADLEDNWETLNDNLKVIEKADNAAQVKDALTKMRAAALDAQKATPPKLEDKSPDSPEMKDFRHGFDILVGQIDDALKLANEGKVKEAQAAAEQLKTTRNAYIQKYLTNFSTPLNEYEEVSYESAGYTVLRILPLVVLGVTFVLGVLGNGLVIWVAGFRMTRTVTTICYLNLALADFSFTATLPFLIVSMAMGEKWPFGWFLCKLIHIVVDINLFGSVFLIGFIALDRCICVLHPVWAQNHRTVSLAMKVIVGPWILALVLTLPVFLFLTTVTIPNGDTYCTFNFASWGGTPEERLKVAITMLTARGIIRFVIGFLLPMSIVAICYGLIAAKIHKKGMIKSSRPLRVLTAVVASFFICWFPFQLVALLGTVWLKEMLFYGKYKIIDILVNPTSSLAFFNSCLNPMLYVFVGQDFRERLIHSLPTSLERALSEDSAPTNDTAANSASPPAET
Procedure: as §1

[5] = biological target: T5, wild-type (WT) and mutant FPR2 (Homo sapiens, UniProt P25090, L81F); test: as above; conditions: FPR2 L81F
T5 construct: expressed in transfected cells; host or cells: HEK293F
T5 sequence (P25090 1-351 L81F): T1 sequence (P25090 1-351 N285A) with L81F, A285N
Procedure: as §1

[6] = biological target: T6, wild-type (WT) and mutant FPR2 (Homo sapiens, UniProt P25090, L198A); test: as above; conditions: FPR2 L198A
T6 construct: expressed in transfected cells; host or cells: HEK293F
T6 sequence (P25090 whole entry L198A): as the sequence (P25090 whole entry R205A) above, with L198A, A205R counted along it
Procedure: as §1

[7] = biological target: T7, wild-type (WT) and mutant FPR2 (Homo sapiens, UniProt P25090); test: as above; conditions: FPR2 WT
T7 construct: expressed in transfected cells; host or cells: HEK293F
T7 sequence (P25090 1-351): T1 sequence (P25090 1-351 N285A) with A285N
Procedure: as §1

[8] = biological target: T8, wild-type (WT) and mutant FPR2 (Homo sapiens, UniProt P25090, L164W); test: as above; conditions: mutation L164W
T8 construct: expressed in transfected cells; host or cells: HEK293F
T8 sequence (P25090 whole entry L164W): as the sequence (P25090 whole entry R205A) above, with L164W, A205R counted along it
Procedure: as §1

[9] = biological target: T9, wild-type (WT) and mutant FPR2 (Homo sapiens, UniProt P25090, V105A); test: as above; conditions: FPR2 V105A
T9 construct: expressed in transfected cells; host or cells: HEK293F
T9 sequence (P25090 1-351 V105A): T1 sequence (P25090 1-351 N285A) with V105A, A285N
Procedure: as §1

Row | pKi, competition binding [1] | pKi, competition binding [2] | WK(FITC)YMVm binding [3] | Span (% of WT), saturation binding ([4]; FPR2 crystallization construct) | Kd ([4]; FPR2 crystallization construct (N-terminal bRIL, S211L, 5 C-terminal residues truncated), mean ± s.e.m., n=5, SEM) | Span (% of WT), saturation binding [5] | Kd ([5]; mean ± s.e.m., n=3, SEM) | Span (% of WT), saturation binding [6] | Kd ([6]; mean ± s.e.m., n=3, SEM) | Span (% of WT), saturation binding [7] | Kd ([7]; mean ± s.e.m., n=3, SEM) | WK(FITC)YMVm binding [8] | Span (% of WT), saturation binding [9] | Kd ([9]; mean ± s.e.m., n=4, SEM) | SMILES
1 | 3.75 ± 0.16 | 3.85 ± 0.24 | – | – | – | – | – | – | – | – | – | – | – | – | CSCC[C@H](NC=O)C(=O)N[C@@H](CC(C)C)C(=O)N[C@@H](Cc1ccccc1)C(=O)N[C@@H](CCCCN)C(=O)O [fMLFK] (For-MLFK-OH)
2 | – | – | complete loss | 154 ± 21 % of WT | 27.7 ± 5.6 nM | 42 ± 4 % of WT | 24.3 ± 8.4 nM | 84 ± 14 % of WT | 41.5 ± 10.0 nM | 100 % of WT | 24.0 ± 8.5 nM | severely impaired | 68 ± 15 % of WT | 25.7 ± 7.5 nM | CSCC[C@H](NC(=O)[C@H](Cc1ccc(O)cc1)NC(=O)[C@H](CCCCNC(=S)Nc1ccc2c(c1)C(=O)OC21c2ccc(O)cc2Oc2cc(O)ccc21)NC(=O)[C@@H](N)Cc1c[nH]c2ccccc12)C(=O)N[C@H](C(=O)N[C@H](CCSC)C(N)=O)C(C)C [WK(FITC)YMVm]
